Earlier results, collected in patent US20200237920A1, “STABLE INJECTABLE PHARMACEUTICAL COMPOSITION OF NEUROKININ 1 RECEPTOR ANTAGONIST AND PROCESS FOR PREPARATION THEREOF” (PHARMATHEN S.A., priority 2012, published 2020).

Key:
[1] = system: serotonin, dopamine or corticosteroid receptors

For `C[C@@H](O[C@H]1OCCN(Cc2n[nH]c(=O)[nH]2)[C@H]1c1ccc(F)cc1)c1cc(C(F)(F)F)cc(C(F)(F)F)c1` [Aprepitant], which “affinity for serotonin, dopamine or corticosteroid receptors (in words)” value [1] is on record?
Its value is “little or no affinity”.

Which “solubility in water (in words)” value does the source give for `CNC[C@H](O)[C@@H](O)[C@H](O)[C@H](O)CO.CNC[C@H](O)[C@@H](O)[C@H](O)[C@H](O)CO.C[C@@H](O[C@H]1OCCN(Cc2nn(P(=O)(O)O)c(=O)[nH]2)[C@H]1c1ccc(F)cc1)c1cc(C(F)(F)F)cc(C(F)(F)F)c1` [Fosaprepitant Dimeglumine] here?
Its value is “freely soluble in water”.
